Values of other authors in US11503825B2, “Pyrethroid formulations” (Vive Crop Protection Inc., priority 2011, dated 2022).
Converted amounts (≈) assume the structure as drawn. “Also recorded” adds a separate entry of the source. Read-outs that look alike come from different tables or passages of the source.

How the values were obtained:
[1] = cited from earlier work; for Stability data: in words
[2] = cited from earlier work; for Photolytic stability: in words; for Photolysis DT50: aqueous solution
[3] = hydrolysis prevents measurement; cited from earlier work
[4] = cited from earlier work
[5] = cited from earlier work; remark: listed apart in the source

In the case of `CC1(C)C(C=C(Cl)Cl)C1C(=O)OC(C#N)c1cccc(Oc2ccccc2)c1` (racemic) [Alpha-cypermethrin, A racemate comprising (S)-α-cyano-3-phenoxybenzyl (1R,3R)-3-(2,2-dichlorovinyl)-2,2-dimethylcyclopropanecarboxylate and (R)-α-cyano-3-phenoxybenzyl (1S,3S)-3-(2,2-dichlorovinyl)-2,2-dimethylcyclopropanecarboxylate], the “DT50 (hydrolysis)” value ([1]; pH 4, 50° C.) is given as “stable over 10 d”, the “DT50 (hydrolysis)” value ([1]; pH 7, 20° C.) is given as 101 days and the “DT50 (hydrolysis)” value ([1]; pH 9, 20° C.) is given as 7.3 days.

For `Cc1c(COC(=O)[C@@H]2[C@H](/C=C(\Cl)C(F)(F)F)C2(C)C)cccc1-c1ccccc1` (racemic) [Bifenthrin, 2-methylbiphenyl-3-ylmethyl (Z)-(1RS,3RS)-3-(2-chloro-3,3,3-trifluoroprop-1-enyl)-2,2-dimethylcyclopropanecarboxylate], the “Photolytic stability DT50” value ([2]; in natural daylight) is listed as “DT50 255 days in natural daylight^+” and the “Soil DT50 (lab.)” value ([1]; range) is listed as 53 to 192 days.

In the case of `CC1(C)[C@H](C(=O)O[C@@H](C#N)c2cccc(Oc3ccccc3)c2)[C@@H]1/C=C(\Cl)C(F)(F)F` (racemic) [Cyhalothrin, (RS)-α-cyano-3-phenoxybenzyl (Z)-(1RS,3RS)-3-(2-chloro-3,3,3-trifluoroprop-1-enyl)-2,2-dimethylcyclopropanecarboxylate], the pKa [3] is given as > 9, the Photolytic stability [2] is given as “Stable to light; slow hydrolysis by water in” and the “Solubility in acetone, dichloromethane, methanol, diethyl ether, ethyl acetate, hexane, toluene” value [4] is given as “acetate, hexane, toluene: >500 g/L”. The Solubility in water ([4]; pH 5, 20° C.) was “water: 4.2 ug/L (pH 5, 20° C.)”, the “KOW logP” value ([5]; 20° C.) was “logP = 6.9” and the Stability data [1] was “Slowly hydrolyzed by water in sunlight at pH 7-9,; also recorded: more rapidly at pH >9”.

For `CC1(C)C(C=C(Cl)Cl)C1C(=O)OC(C#N)c1cccc(Oc2ccccc2)c1` (racemic) [Cypermethrin, (RS)-α-cyano-3-phenoxybenzyl (1RS,3RS;1RS,3SR)-3-(2,2-dichlorovinyl)-2,2-dimethylcyclopropanecarboxylate], the “DT50 (hydrolysis)” value ([1]; pH 9, 25° C.) is given as 1.8 days.

In the case of `CC(C)[C@@H](C(=O)O[C@@H](C#N)c1cccc(Oc2ccccc2)c1)c1ccc(Cl)cc1` (racemic) [Fenvalerate, (RS)-α-cyano-3-phenoxybenzyl (RS)-2-(4-chlorophenyl)-3-methylbutyrate], the Photolytic stability [2] is listed as “Decarboxylation occurs in light^+”, the Solubility in methanol ([4]; 20° C.) is listed as “methanol 84 (all in g/l, 20° C.)” and the Solubility in n-hexane ([4]; 20° C.) is listed as 53 g/L (≈ 126 mM). The Solubility in xylene ([4]; 20° C.) was > 200 g/L, the Solubility in water ([4]; 25° C.) was “water <10 μg/l (25° C.)” and the “KOW logP” value ([5]; 23° C.) was “logP = 5.01”. The Stability data [1] was “rapidly hydrolyzed in alkaline media”.

In the case of `CC1(C)C(C=C(Cl)Cl)C1C(=O)OC(C#N)c1cccc(Oc2ccccc2)c1` (racemic) [Zeta-cypermethrin, A mixture of the stereoisomers (S)-α-cyano-3-phenoxybenzyl (1RS,3RS;1RS,3SR)-3-(2,2-dichlorovinyl)-2,2-dimethylcyclopropanecarboxylate where the ratio of the (S);(1RS,3RS) isomeric pair to the (S);(1RS,3SR) isomeric pair lies in the ratio range 45-55 to 55-45], the “Photolysis DT50” value [2] is listed as “Photolysis DT50 (aqueous solution) 20-26 days^+”, the “Hydrolysis DT50” value ([1]; pH 7, 25° C.) is listed as 25 days and the “Hydrolysis DT50” value ([1]; pH 9, 50° C.) is listed as 1.5 h (pH 9, 50° C.).

For `CC1(C)[C@H](C(=O)O[C@H](C#N)c2cccc(Oc3ccccc3)c2)[C@@H]1C=C(Br)Br` [Deltamethrin, (S)-α-cyano-3-phenoxybenzyl (1R,3R)-3-(2,2-dibromovinyl)-2,2-dimethylcyclopropanecarboxylate], the Photolytic stability [2] is listed as “Ester bond splitting and bromine loss under”, the “KOW logP” value ([5]; 25° C.) is listed as “logP = 4.6” and the Stability data [1] is listed as “stable at pH 5 and 7”. For the same molecule, the DT50 ([1]; pH 8) was 31 days and the DT50 ([1]; pH 9) was 2.5 days.

For `CC(C)[C@H](C(=O)O[C@H](C#N)c1cccc(Oc2ccccc2)c1)c1ccc(Cl)cc1` [Esfenvalerate, (S)-α-cyano-3-phenoxybenzyl (S)-2-(4-chlorophenyl)-3-methylbutyrate], the Photolytic stability [2] is listed as “Stable^+”, the Solubility in hexane ([4]; 20° C.) is listed as 77 mg/mL (≈ 183 mM) and the Solubility in water ([4]; 20° C.) is listed as “water 0.002 mg/l (20° C.)”. For the same molecule, the “Solubility in xylene, acetone, chloroform, ethanol, methanol, DMF, hexylene glycol” value ([4]; 20° C.) was > 450 mg/mL, the “KOW logP” value ([5]; pH 7, 25° C.) was “logP = 6.5” and the Stability data [1] was “Stable to hydrolysis at pH 5, 7 and 9 (25° C.)”.

In the case of `CC1(C)[C@H](C(=O)O[C@H](C#N)c2cccc(Oc3ccccc3)c2)[C@@H]1/C=C(\Cl)C(F)(F)F` [Gamma-cyhalothrin, (S)-α-cyano-3-phenoxybenzyl (Z)-(1R,3R)-3-(2-chloro-3,3,3-trifluoroprop-1-enyl)-2,2-dimethylcyclopropanecarboxylate], the “Photolysis DT50” value [2] is listed as “Photolysis DT50 (aqueous solution) 10.6 days^+”, the Solubility in water ([4]; 20° C.) is listed as “water 2.1 × 10^−3 mg/l (20° C.)” and the “KOW logP” value ([5]; 19° C.) is listed as “logP = 4.96”.

For `CC1(C)C(C=C(Cl)Cl)C1C(=O)OCc1cccc(Oc2ccccc2)c1` (stereo not drawn) [Permethrin, 3-phenoxybenzyl (1RS,3RS;1RS,3SR)-3-(2,2-dichlorovinyl)-2,2-dimethylcyclopropanecarboxylate], the Photolytic stability [2] is listed as “Photolysis in water^++”, the Solubility in methanol ([4]; 25° C.) is listed as 258 (all in g/kg, 25° C.) and the “Solubility in xylene, hexane” value ([4]; 25° C.) is listed as “xylene, hexane >1000, methanol g/kg”. For the same molecule, the Solubility in water ([4]; pH 7, 20° C.) was “water 6 × 10^−3mg/l (pH 7, 20° C.);”, the Solubility in water ([4]; trans- isomers, pH not stated, 25° C.) was “stated, 25° C.); trans- isomers 0.13 mg/l” and the DT50 ([1]; pH 5, 7, 25° C.) was “stable”. For the same molecule, the “DT50 (hydrolysis)” value ([1]; pH 9, 25° C.) was 50 days.

For `CC(C)=CC1C(C(=O)OCc2coc(Cc3ccccc3)c2)C1(C)C` (stereo not drawn) [Resmethrin, 5-benzyl-3-furylmethyl (1RS,3RS;1RS,3SR)-2,2-dimethyl-3-(2-methylprop-1-enyl)cyclopropane carboxylate], the Photolytic stability [2] is given as “Decomposes rapidly on exposure to air and light^+”, the Solubility in water ([4]; 25° C.) is given as “water 37.9 μg/l (25° C.)” and the Solubility in acetone ([4]; m/v, 20° C.) is given as “acetone c. 30%, chloroform,”. The “Solubility in chloroform, dichloromethane, ethyl acetate, toluene” value ([4]; m/v, 20° C.) was > 50%, the “Solubility in ethanol, n-octanol” value ([4]; m/v, 20° C.) was “ethanol, n-octanol c. 6%, n-hexane” and the “Solubility in isopropyl ether” value ([4]; m/v, 20° C.) was ~25%. For the same molecule, the Solubility in methanol ([4]; m/v, 20° C.) was “methanol c. 3% (all m/v, 20° C.)”, the Solubility in n-hexane ([4]; m/v, 20° C.) was ~10% and the Solubility in xylene ([4]; m/v, 20° C.) was > 40%. The “KOW logP” value ([5]; 25° C.) was “logP = 5.43” and the Stability data [1] was “Unstable in alkaline media”.

In the case of “A mixture of the enantiomers (R)-α-cyano-3-phenoxybenzyl (1S,3R)-3-(2,2-dichlorovinyl)-2,2-dimethylcyclopropanecarboxylate and (S)-α-cyano-3-phenoxybenzyl (1R,3S)-3-(2,2-dichlorovinyl)-2,2-dimethylcyclopropanecarboxylate in the ratio 1:1 [Theta-cypermethrin]”, the “DT50 (extrapolated)” value ([1]; pH 3, 5, 6, 25° C.) is listed as 50 days, the “DT50 (extrapolated)” value ([1]; pH 7, 25° C.) is listed as 20 days and the “DT50 (extrapolated)” value ([1]; pH 8, 25° C.) is listed as 18 days. The “DT50 (extrapolated)” value ([1]; pH 9, 25° C.) was 10 days.

For Beta-cypermethrin, the “KOW logP” value [5] is listed as “logP = 4.7”, the Stability data [1] is listed as “Hydrolyzed in strongly alkaline media. DT50” and the “DT50 (extrapolated)” value ([1]; pH 3, 5, 6, 25° C.) is listed as 50 days. The “DT50 (extrapolated)” value ([1]; pH 7, 25° C.) was 40 days, the “DT50 (extrapolated)” value ([1]; pH 8, 25° C.) was 20 days and the “DT50 (extrapolated)” value ([1]; pH 9, 25° C.) was “(pH 8), 15 d (pH 9) (all at 25° C.)”.
